Assay results taken from patent US20200246316A1, “METHODS OF TREATING POST-SURGICAL PAIN WITH A THIAZOLINE ANTI-HYPERALGESIC AGENT” (CERSCI THERAPEUTICS, INC., priority 2019, published 2020).
“Also recorded” adds a separate entry of the source. Counter-ions that a name gives are not always drawn.

Assays:
[1] = Red Blood Cell (RBC) partitioning; type: in vitro ADME; conditions: 60 min post-exposure
From the text: The compound distributed readily in tissues with a steady-state volume of distribution of 1.7 L/kg.

Stability in plasma = type: in vitro ADME
From the text: Upon administration, Compound 1 is stable in both plasma and hepatocytes from rat, dog and human.

[2] = Dog single dose study, IV 10 mg/kg and oral 10 and 100 mg/kg; type: in vivo; conditions: for peak plasma concentration: fasted
Procedure: In another study, Compound 1 was administered IV as a single dose to fasted beagle dogs at 10 mg/kg and orally at 10 and 100 mg/kg. Compound 1 was rapidly and well absorbed orally, within 1 hr, reaching peak plasma concentrations of 15 and 108 μg/mL at 10 and 100 mg/kg doses, respectively. The compound distributed readily in tissues with a moderate steady-state volume of distribution (0.3 L/kg).

[3] = Rat brain distribution and pharmacokinetic study; type: in vivo
From the text: A rat brain distribution study performed in order to determine standard pharmacokinetic parameters and to assess the brain penetration properties of Compound 1 administered orally and intravenously.

[4] = Cytotoxicity by lactate dehydrogenase (LDH) release; type: cell-based; conditions: dog, MDCKII control cells, read-out: percent cytotoxicity (LDH release)
[5] = Gravimetric Vapor Sorption (GVS); type: physicochemical
From the text: The sample is hygroscopic.

[6] = Log D distribution coefficient (PBS buffer/octanol); type: physicochemical
Procedure: Compound 1 has a Log D distribution coefficient at pH 7.2 of −0.07 (3 mL PBS Buffer: 1 mL Octanol) and −0.39 (2 mL PBS Buffer: 2 mL Octanol), where PBS is phosphate buffer solution.

[7] = Elimination from plasma after intravenous administration in rats; type: in vivo; conditions: rat
OATP1B1 = target: T1, OATP1B1 (Homo sapiens, UniProt Q9Y6L6); assay: Inhibition of uptake (SLC) transporters; type: in vitro ADME
T1 construct: expressed in transfected cells; host or cells: HEK293 cells

peroxynitrite = assay: Models of protein nitration; type: biochemical; conditions: physiological conditions (neutral pH)
From the text: (§1) In cell-based assays of PN-mediated cytotoxicity, Compound 1 is protective. […] Chemically, Compound 1 can also react stoichiometrically with peroxynitrite to form a para-nitro adduct. Without being bound by theory, by targeting and removing peroxynitrite and peroxide, Compound 1 can disrupt the ensuing cascades that lead to hypersensitivity (protein modification, ion channel hyperexcitation) thus providing a long duration event in terms of pain relief.

OCT = target: T2, OCT (Homo sapiens, UniProt O15245); assay: Inhibition of uptake (SLC) transporters; type: in vitro ADME; conditions: OCT1; HEK293 cells, probe [14C]-tetraethylammonium bromide (5 μM), 0.3-600 μM tested
T2 construct: expressed in transfected cells; host or cells: HEK293 cells

[8] = Effect of food on oral bioavailability in rats; type: in vivo, rat
Procedure: The effect of food on oral bioavailability was determined.

OAT1 = target: T3, OAT1 (Homo sapiens, UniProt Q4U2R8); assay: Inhibition of uptake (SLC) transporters; type: in vitro ADME
T3 construct: expressed in transfected cells; host or cells: HEK293 cells

[9] = system: rat hind paw incision model; assay: Brennan incisional pain model, prophylactic paradigm; type: in vivo
From the text: Two incisional pain models were used to assess Compound 1 effects on hyperalgesia. The first model is referred to as the Brennan model in which, under anesthesia, a 1 cm longitudinal incision to the skin and underlying fascia of a rat hindpaw is made. The second is a variation but is a more invasive procedure in which the skin and muscle are spread apart using forceps which creates a longer-lasting hypersensitivity.
Using the Brennan protocol and a prophylactic paradigm, Compound 1 (3 doses given PO) or vehicle was administered 15 min prior to incision. At the 24-, 48-, and 72-h time points post-incision, mechanical thresholds were obtained (manual von Frey filament, using up/down method).
In a subsequent experiment, the same paradigm was used with Compound 1 administered at a dose of 30 mg/kg PO along with positive control group consisting of celecoxib (30 mg/kg PO), morphine (10 mg/kg SC), and vehicle.

in vivo = conditions: rat, po, 100 mg/kg; for concentration at 1 h: 1 h post-dose; for concentration at 2 h: 2 h post-dose; for concentration at 0.5 h: 0.5 h post-dose
Procedure: In both assays, a deuterated (Compound 1-d4) internal standard was used.
The objective of this non-GLP study was to determine the pharmacokinetics of Compound 1 after a single oral (gavage) dose in rats, and to determine if Compound 1 undergoes epimerization in the rat. Compound 1 was administered to CD® IGS [Crl:CD(SD)] (Sprague Dawley) rats (5/sex/group) as a single oral gavage dose of 100 mg/kg in a vehicle of 0.5% aqueous HPMC. Rats were dosed at a dose volume of 10 mL/kg body weight.

[10] = Stability in plasma from a variety of species; type: in vitro ADME
From the text: Further metabolism work in additional species will be undertaken.

[11] = system: lactoperoxidase oxidation (mediated by peroxide); assay: Lactoperoxidase oxidation (mediated by peroxide); type: biochemical; conditions: physiological conditions (neutral pH)
From the text: as §1

[12] = Rat single dose metabolism/excretion study (urine and feces)
[13] = female, Sprague Dawley, Compound 1 Concentration in rat plasma, 100 mg/kg single PO, individual animals
[14] = female, Sprague-Dawley (CD IGS, Crl:CD(SD))
[15] = male, Sprague Dawley, Compound 1 Concentration in rat plasma, 100 mg/kg single PO, individual animals
[16] = male, Sprague Dawley, Compound 1 Concentration in rat plasma, 100 mg/kg single PO, Average
[17] = male, Sprague-Dawley (CD IGS, Crl:CD(SD))

T3 sequence (Q4U2R8 whole entry): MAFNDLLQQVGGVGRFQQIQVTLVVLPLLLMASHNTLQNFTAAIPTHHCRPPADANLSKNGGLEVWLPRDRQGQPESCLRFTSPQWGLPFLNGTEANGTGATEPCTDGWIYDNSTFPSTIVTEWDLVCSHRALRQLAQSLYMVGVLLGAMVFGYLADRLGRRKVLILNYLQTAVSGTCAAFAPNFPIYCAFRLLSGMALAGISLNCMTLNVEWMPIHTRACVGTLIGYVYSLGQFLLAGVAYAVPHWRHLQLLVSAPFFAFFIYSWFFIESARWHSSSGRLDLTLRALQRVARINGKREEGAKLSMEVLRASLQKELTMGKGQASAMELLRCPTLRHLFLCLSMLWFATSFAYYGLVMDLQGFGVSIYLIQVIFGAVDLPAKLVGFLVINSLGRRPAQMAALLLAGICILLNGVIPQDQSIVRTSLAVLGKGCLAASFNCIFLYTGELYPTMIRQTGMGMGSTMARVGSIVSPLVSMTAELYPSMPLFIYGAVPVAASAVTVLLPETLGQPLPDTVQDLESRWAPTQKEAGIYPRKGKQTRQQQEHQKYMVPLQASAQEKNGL
T1 sequence (Q9Y6L6 whole entry): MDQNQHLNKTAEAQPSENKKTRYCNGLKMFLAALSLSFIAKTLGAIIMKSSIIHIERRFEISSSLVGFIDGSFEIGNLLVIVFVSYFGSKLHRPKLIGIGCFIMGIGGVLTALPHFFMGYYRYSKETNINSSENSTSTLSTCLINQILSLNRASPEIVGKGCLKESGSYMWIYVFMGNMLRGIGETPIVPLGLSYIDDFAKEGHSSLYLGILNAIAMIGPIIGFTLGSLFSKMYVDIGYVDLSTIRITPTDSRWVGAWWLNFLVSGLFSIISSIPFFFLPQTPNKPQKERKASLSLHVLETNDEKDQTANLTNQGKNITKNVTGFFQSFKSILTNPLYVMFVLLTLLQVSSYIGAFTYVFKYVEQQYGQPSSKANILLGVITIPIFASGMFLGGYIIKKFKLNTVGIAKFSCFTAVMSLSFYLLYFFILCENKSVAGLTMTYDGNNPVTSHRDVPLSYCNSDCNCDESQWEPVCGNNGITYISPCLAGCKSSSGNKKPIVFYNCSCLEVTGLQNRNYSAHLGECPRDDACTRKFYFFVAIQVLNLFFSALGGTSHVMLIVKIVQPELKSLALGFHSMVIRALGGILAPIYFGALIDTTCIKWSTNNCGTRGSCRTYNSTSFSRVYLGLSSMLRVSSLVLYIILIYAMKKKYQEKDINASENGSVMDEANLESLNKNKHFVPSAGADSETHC
T2 sequence (O15245 whole entry): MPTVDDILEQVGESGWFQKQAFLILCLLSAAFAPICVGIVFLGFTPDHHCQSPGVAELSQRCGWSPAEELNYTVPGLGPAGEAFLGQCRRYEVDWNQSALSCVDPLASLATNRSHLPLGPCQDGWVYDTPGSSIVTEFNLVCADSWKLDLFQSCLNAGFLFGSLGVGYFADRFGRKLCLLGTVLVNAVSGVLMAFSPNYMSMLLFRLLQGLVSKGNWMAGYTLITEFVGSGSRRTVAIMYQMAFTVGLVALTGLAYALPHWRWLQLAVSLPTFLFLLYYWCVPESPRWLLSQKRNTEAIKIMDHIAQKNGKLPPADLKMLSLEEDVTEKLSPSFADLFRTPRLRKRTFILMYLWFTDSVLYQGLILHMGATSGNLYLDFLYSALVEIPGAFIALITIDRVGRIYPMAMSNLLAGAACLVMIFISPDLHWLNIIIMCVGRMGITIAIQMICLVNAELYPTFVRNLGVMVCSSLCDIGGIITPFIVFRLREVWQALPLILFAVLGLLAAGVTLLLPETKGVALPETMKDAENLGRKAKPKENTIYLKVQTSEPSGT

Structure (SMILES): CC1(C)SC(Nc2ccccc2O)=N[C@@H]1C(=O)O [Compound 1, (R)-2-(2-hydroxyphenylamino)-5,5-dimethyl-4,5-dihydrothiazole-4-carboxylic acid mono-hydrochloride]
- KRBC/PL ([1]; dog): < 0.25
- KRBC/PL ([1]; human): < 0.25
- KRBC/PL ([1]; monkey): < 0.25
- KRBC/PL ([1]; rat): < 0.25
- stability in plasma (Stability in plasma; dog): stable
- stability in plasma (Stability in plasma; human): stable
- stability in plasma (Stability in plasma; rat): stable
- peak plasma concentration ([2]; 10 mg/kg oral): 15 µg/mL
- peak plasma concentration ([2]; 100 mg/kg oral): 108 µg/mL
- bioavailability ([2]; beagle, dog, plasma, po, both 10 and 100 mg/kg doses): 75%
- time to peak plasma concentration ([2]; oral, fasted beagle dogs): ≤ 1 h
- peak plasma concentration ([3]; 30 mg/kg oral): 9 µg/mL
- time to peak plasma concentration ([3]; 30 mg/kg oral): ≤ 1 h
- bioavailability ([3]; rat, in vivo, 30 mg/kg oral dose): 111%
- half-life ([3]; rat, in vivo, 30 mg/kg oral dose, read-out: terminal half-life (converted)): 1.6 h
- Kp at 1 h ([3]; rat, in vivo, 1 h after IV administration, read-out: brain-to-plasma concentration ratio): 0.02
- brain/tissue distribution ([3]; rat, in vivo, mono-hydrochloride): distributes to tissues but not to brain to an appreciable extent; also recorded: peripherally restricted
- cytotoxicity at 100 µM ([4]; 100 μM): 31.3%
- cytotoxicity at 600 µM ([4]; 600 μM): 33.6%
- hygroscopicity ([5]; GVS): hygroscopic
- GVS uptake ([5]; between 0% and 90% RH): 6%
- logD ([6]; pH 7.2, pH 7.2, 2 mL PBS Buffer: 2 mL Octanol): -0.39
- logD ([6]; pH 7.2, pH 7.2, 3 mL PBS Buffer: 1 mL Octanol): -0.07
- half-life [7]: ~3 h
- IC50 (OATP1B1; HEK293 cells, probe [3H]-estradiol-17β-glucuronide (0.05 μM), 0.3-600 μM tested): > 600 µM
- transporter inhibition (OATP1B1; OATP1B1): does not inhibit
- removal of peroxynitrite in models of protein nitration (peroxynitrite): catalytically remove peroxynitrite
- IC50 (OCT): > 600 µM
- peak plasma concentrations in fasted compared to fed rats ([8]; 10 mg/kg): significantly increased
- difference in pharmacokinetic properties fed vs fasted ([8]; 100 mg/kg oral): No statistically significant differences
- oral absorption ([8]; fed and fasted rats, 10 and 100 mg/kg): well and rapidly absorbed
- IC50 (OAT1; HEK293 cells, probe [3H]-p-aminohippurate (1 μM), 0.3-600 μM tested): > 600 µM
- transporter inhibition (OAT1; OAT1): does not inhibit
- reversal of hyperalgesia ([9]; 10 mg/kg PO, mono-hydrochloride): statistically significant reversal of hyperalgesia; also recorded: statistically significant effect
- efficacy relative to vehicle ([9]; 30 mg/kg PO): full efficacy
- dose dependence of anti-hyperalgesic effect ([9]; 3 doses PO, 24, 48, 72 h post-incision, mono-hydrochloride): reversal of hyperalgesia in a dose-dependent manner
- mechanical withdrawal thresholds ([9]; 24-, 48-, 72-h post-incision, Compound 1 30 mg/kg PO, celecoxib 30 mg/kg PO, morphine 10 mg/kg SC): 32 to 35 g
- dose required for significance ([9]; PO, single dose 15 min prior to incision): 10 mg/kg
- duration of prevention of incisional hyperalgesia ([9]; single oral dose): at least 3 days
- duration of effect on development of hyperalgesia ([9]; single oral dose, FIG. 10): prevented the development of hyperalgesia for three days
- effect on development of mechanical hyperalgesia ([9]; single pre-surgical dose, 24 h, 48 h, 72 h post dose, FIG. 11): completely prevented development of mechanical hyperalgesia out through day 3
- concentration at 1 h (in vivo; female, Sprague Dawley (CD IGS, Crl:CD(SD)), Compound 1 Concentration in rat plasma, Female, 100 mg/kg single PO, Average): 60100 ng/mL
- concentration at 2 h (in vivo; female, Sprague Dawley (CD IGS, Crl:CD(SD)), Compound 1 Concentration in rat plasma, Female, 100 mg/kg single PO, individual animals): 58200 ng/mL
- concentration at 4 h (in vivo; female, Sprague Dawley (CD IGS, Crl:CD(SD)), Compound 1 Concentration in rat plasma, Female, 100 mg/kg single PO, 4 h post-dose, Average): 22600 ng/mL
- concentration at 0.5 h (in vivo; [13]): 34300 ng/mL
- concentration at 1 h (in vivo; [13]): 53900 ng/mL
- Cmax (in vivo; [14]): 60000 ng/mL
- half-life (in vivo; [14]): 4 h
- concentration at 0.5 h (in vivo; [15]): 13800 ng/mL
- concentration at 1 h (in vivo; [16]): 14900 ng/mL
- concentration at 2 h (in vivo; [16]): 14300 ng/mL
- concentration at 2 h (in vivo; [15]): 16300 ng/mL
- concentration at 8 h (in vivo; male, Sprague Dawley, Compound 1 Concentration in rat plasma, 100 mg/kg single PO, 8 h post-dose, individual animals): 1610 ng/mL
- Cmax (in vivo; [17]): 15000 ng/mL
- Tmax (in vivo; [17]): 1 h
- half-life (in vivo; [17]): 7 h
- stability in plasma [10]: stable
- removal of peroxynitrite in lactoperoxidase oxidation [11]: catalytically remove peroxynitrite
- administered compound recovered unchanged [12]: 5-15%
